Test results published in patent US9273055B2, “Tyrosine kinase inhibitors” (Chembridge Corporation, priority 2008, dated 2016).
Values joined by “and” are separate entries in the source; they are usually repeats but may differ in a detail not shown here. Equal entries are not always repeated. Where two headings read alike, the source gives them in different places. Values belong to the compound of their own block, whether it stands above or below them.

Key:
[1] = biological target: hERG potassium channel current expressed in HEK293 cells (Homo sapiens, UniProt Q12809); experiment: hERG automatic patch clamp (PatchXpress 7000A)
NB-1 neuroblastoma cells = experiment: 3 day cell viability (WST-1), NB-1; type: cell-based; conditions: 72 h, 3 days
[2] = Phase I microsome metabolic stability, rat; conditions: pH 7.4
[3] = Phase I microsome metabolic stability, human; conditions: pH 7.4
EML4-ALK C1156Y = EML4-ALK C1156Y (Homo sapiens, UniProt Q9UM73, C1156Y); experiment: BaF3 stable clone growth (WST-1), EML4-ALK C1156Y; conditions: BaF3 stables
EML4-ALK R1275Q = EML4-ALK R1275Q (Homo sapiens, UniProt Q9UM73, R1275Q); experiment: BaF3 stable clone growth (WST-1), EML4-ALK R1275Q; conditions: read-out: BaF3 Stables IC50 ± SEE, R1275Q; EML4-ALK construct
[4] = Caco-2 cell permeation study; type: in vitro ADME; conditions: human; for Papp A→B at 2 h, 10 μM / Papp B→A at 2 h, 10 μM: Caco-2, 10 μM; for Papp A→B at 2 h, 10 μM: apical pH 6.5, 2 h; for Papp B→A at 2 h, 10 μM: basolateral pH 7.4, 2 h
NPM-ALK R1275Q = NPM-ALK R1275Q (Homo sapiens, UniProt Q9UM73, R1275Q); experiment: BaF3 stable clone growth (WST-1), NPM-ALK R1275Q; conditions: read-out: BaF3 Stables IC50 ± SEE, R1275Q; NPM-ALK construct
NPM-ALK C1156Y = NPM-ALK C1156Y (Homo sapiens, UniProt Q9UM73, C1156Y); experiment: BaF3 stable clone growth (WST-1), NPM-ALK C1156Y; conditions: BaF3 stables
FLT3-ITD = biological target: T1, FLT3-ITD (Homo sapiens, UniProt P36888, cells depend on it, form not given); experiment: BaF3 stable clone growth (WST-1), FLT3-ITD; conditions: read-out: BaF3 Stables IC50 ± SEE, FLT3-ITD
T1 sequence (P36888 with tags, fused parts or gaps INS600HVDFREYEYD): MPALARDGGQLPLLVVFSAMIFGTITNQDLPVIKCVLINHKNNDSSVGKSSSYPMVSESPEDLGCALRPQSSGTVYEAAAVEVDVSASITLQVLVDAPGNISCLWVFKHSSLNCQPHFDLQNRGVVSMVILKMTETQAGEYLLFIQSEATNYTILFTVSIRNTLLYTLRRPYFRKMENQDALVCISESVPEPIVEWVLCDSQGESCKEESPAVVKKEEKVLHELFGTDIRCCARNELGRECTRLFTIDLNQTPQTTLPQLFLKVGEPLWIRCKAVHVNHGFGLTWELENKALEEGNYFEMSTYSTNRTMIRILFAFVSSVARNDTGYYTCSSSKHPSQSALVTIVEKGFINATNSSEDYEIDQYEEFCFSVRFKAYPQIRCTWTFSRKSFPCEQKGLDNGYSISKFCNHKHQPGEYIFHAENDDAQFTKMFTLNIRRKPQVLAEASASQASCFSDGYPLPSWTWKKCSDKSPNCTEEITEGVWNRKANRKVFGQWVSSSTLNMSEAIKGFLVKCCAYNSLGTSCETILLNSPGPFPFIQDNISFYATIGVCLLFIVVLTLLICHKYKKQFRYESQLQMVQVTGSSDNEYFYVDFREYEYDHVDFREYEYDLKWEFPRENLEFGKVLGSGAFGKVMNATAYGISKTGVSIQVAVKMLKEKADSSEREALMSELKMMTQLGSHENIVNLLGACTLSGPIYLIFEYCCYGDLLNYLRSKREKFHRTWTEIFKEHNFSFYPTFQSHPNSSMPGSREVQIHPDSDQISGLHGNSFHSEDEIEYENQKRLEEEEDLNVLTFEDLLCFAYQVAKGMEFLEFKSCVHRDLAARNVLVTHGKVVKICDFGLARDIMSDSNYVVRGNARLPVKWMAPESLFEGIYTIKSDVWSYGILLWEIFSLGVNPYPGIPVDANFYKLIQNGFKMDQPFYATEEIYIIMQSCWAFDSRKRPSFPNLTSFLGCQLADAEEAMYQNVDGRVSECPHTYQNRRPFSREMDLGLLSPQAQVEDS

[5] = Rat pharmacokinetics / bioavailability; type: in vivo; conditions: for AUC(0-t): male, Sprague-Dawley, plasma, read-out: AUC0-1440 (converted)
in vitro = conditions: rat, pH 7.4
Caco-2 monolayers = experiment: Caco-2 cell permeation study; type: in vitro ADME; conditions: for Papp A to B: apical pH 6.5, 2 h
[6] = Phase I microsome metabolic stability, mouse; type: in vitro ADME; conditions: 1.0 mg/ml microsomes
ALK = biological target: T2, ALK (Homo sapiens, UniProt Q9UM73); experiment: In vitro kinase activity assay (LANCE TR-FRET), ALK; type: biochemical
T2 construct: purchased Invitrogen

TrkA = biological target: T3, TrkA (Homo sapiens, UniProt P04629); experiment: In vitro kinase activity assay (LANCE TR-FRET), TrkA; type: biochemical
T3 construct: purchased Invitrogen

U937 lymphoma cells = experiment: 3 day cell viability (WST-1), U937; type: cell-based; conditions: 3 days
Dog pharmacokinetics = type: in vivo, beagle dog; conditions: 5 mg/kg PO
Mouse pharmacokinetics = type: in vivo; conditions: 10 mg/kg SC
[7] = Guinea pig pharmacokinetics; type: in vivo; conditions: 10 mg/kg PO
K299 lymphoma cells = experiment: 3 day cell viability (WST-1), K299; type: cell-based; conditions: Homo sapiens, 72 h, 3 days
cMET = biological target: T4, cMET (Homo sapiens, UniProt P08581); experiment: In vitro kinase activity assay (LANCE TR-FRET), cMET; type: biochemical
T4 construct: purchased Invitrogen

[8] = positive control run with the compound of that line, 10 μM

Sequence of hERG potassium channel current expressed in HEK293 cells (Q12809 whole entry): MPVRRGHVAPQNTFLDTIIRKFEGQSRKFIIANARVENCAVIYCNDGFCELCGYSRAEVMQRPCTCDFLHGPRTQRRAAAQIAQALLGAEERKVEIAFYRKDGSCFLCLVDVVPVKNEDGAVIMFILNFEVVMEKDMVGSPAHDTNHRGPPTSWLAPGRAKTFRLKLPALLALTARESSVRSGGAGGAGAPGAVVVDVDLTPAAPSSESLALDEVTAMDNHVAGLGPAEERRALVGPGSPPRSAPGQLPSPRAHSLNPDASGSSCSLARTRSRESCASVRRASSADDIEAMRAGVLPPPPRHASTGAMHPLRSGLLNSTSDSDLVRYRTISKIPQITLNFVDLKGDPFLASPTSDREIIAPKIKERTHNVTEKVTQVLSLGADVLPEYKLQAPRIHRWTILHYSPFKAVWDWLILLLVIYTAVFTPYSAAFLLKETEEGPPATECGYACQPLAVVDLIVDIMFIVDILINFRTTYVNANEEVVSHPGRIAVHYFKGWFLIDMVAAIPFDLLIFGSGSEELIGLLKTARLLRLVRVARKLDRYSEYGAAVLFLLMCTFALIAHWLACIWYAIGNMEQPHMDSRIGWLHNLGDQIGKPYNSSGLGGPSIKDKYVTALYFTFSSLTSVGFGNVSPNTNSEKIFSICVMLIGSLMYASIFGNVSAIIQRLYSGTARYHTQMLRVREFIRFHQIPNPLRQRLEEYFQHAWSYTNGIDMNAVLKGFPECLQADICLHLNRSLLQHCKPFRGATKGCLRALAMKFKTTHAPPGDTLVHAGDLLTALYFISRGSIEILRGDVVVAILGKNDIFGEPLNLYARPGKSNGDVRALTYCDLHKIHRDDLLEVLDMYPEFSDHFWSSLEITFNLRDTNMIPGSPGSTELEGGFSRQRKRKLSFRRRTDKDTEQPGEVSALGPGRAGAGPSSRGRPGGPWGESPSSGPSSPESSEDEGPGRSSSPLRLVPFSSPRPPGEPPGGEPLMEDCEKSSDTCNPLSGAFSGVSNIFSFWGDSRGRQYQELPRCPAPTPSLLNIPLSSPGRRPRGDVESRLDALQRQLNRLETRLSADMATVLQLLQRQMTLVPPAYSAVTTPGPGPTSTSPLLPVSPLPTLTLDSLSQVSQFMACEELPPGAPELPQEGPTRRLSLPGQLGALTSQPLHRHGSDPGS
Sequence of EML4-ALK C1156Y (Q9UM73 1060-1620 C1156Y limits assumed): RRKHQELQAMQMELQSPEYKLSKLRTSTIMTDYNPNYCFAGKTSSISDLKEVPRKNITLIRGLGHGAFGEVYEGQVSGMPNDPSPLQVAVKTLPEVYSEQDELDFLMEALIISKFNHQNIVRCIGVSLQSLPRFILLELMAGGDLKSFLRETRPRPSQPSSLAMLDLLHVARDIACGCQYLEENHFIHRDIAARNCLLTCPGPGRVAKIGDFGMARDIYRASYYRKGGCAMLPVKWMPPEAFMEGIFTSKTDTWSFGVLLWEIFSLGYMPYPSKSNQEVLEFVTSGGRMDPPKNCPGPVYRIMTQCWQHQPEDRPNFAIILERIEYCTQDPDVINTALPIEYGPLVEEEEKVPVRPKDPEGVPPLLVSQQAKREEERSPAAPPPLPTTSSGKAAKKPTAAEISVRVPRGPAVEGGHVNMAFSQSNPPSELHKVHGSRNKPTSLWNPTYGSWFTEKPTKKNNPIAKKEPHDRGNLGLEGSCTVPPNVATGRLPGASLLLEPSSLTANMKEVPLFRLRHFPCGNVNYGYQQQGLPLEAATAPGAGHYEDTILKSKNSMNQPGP
T2 sequence (Q9UM73 19-1620): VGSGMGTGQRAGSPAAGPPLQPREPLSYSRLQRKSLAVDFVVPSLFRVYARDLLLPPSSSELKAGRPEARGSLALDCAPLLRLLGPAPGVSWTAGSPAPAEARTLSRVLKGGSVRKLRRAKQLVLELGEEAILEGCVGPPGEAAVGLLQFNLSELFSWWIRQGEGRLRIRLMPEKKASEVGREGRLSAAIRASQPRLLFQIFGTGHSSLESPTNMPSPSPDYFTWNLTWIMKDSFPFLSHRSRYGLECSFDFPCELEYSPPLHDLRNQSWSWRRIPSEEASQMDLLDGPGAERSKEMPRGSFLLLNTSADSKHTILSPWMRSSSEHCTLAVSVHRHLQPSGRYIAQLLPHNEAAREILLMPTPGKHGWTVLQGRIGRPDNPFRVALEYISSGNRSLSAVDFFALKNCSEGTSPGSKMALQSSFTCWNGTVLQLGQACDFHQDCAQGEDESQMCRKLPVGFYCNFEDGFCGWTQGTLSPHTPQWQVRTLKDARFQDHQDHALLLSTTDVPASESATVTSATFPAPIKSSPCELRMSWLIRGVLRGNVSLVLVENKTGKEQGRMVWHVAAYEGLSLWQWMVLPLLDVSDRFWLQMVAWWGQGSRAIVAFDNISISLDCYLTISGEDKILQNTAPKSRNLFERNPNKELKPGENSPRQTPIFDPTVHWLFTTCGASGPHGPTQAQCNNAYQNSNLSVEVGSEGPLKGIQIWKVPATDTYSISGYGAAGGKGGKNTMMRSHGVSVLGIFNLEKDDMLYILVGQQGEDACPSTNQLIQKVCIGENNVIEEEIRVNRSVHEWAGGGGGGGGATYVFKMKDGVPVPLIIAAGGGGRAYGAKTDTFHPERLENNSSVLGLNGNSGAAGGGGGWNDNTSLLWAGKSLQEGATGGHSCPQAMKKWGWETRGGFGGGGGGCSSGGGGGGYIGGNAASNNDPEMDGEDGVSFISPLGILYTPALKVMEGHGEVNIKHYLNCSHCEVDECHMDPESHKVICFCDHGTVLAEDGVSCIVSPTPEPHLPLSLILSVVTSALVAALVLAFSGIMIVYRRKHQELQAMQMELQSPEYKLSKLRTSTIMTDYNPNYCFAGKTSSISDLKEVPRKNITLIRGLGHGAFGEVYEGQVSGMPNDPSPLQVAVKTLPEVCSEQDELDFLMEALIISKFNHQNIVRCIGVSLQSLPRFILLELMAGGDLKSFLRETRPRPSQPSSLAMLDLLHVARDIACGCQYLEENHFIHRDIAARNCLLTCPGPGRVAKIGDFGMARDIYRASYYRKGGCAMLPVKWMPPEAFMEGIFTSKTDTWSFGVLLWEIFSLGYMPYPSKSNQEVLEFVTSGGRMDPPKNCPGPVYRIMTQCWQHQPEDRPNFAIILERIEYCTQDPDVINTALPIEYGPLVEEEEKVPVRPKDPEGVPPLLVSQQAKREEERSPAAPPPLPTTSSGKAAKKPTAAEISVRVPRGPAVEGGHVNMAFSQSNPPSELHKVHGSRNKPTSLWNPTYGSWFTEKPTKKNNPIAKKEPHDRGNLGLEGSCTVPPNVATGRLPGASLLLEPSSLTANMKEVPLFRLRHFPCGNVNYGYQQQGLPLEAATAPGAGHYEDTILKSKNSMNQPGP
Sequence of NPM-ALK R1275Q (Q9UM73 1060-1620 R1275Q limits assumed): as the sequence (Q9UM73 1060-1620 C1156Y limits assumed) above, with Y97C, R216Q counted along it
Sequence of EML4-ALK R1275Q (Q9UM73 1060-1620 R1275Q limits assumed): as the sequence (Q9UM73 1060-1620 C1156Y limits assumed) above, with Y97C, R216Q counted along it
Sequence of NPM-ALK C1156Y (Q9UM73 1060-1620 C1156Y limits assumed): as the sequence (Q9UM73 1060-1620 C1156Y limits assumed) above
T3 sequence (P04629 33-796): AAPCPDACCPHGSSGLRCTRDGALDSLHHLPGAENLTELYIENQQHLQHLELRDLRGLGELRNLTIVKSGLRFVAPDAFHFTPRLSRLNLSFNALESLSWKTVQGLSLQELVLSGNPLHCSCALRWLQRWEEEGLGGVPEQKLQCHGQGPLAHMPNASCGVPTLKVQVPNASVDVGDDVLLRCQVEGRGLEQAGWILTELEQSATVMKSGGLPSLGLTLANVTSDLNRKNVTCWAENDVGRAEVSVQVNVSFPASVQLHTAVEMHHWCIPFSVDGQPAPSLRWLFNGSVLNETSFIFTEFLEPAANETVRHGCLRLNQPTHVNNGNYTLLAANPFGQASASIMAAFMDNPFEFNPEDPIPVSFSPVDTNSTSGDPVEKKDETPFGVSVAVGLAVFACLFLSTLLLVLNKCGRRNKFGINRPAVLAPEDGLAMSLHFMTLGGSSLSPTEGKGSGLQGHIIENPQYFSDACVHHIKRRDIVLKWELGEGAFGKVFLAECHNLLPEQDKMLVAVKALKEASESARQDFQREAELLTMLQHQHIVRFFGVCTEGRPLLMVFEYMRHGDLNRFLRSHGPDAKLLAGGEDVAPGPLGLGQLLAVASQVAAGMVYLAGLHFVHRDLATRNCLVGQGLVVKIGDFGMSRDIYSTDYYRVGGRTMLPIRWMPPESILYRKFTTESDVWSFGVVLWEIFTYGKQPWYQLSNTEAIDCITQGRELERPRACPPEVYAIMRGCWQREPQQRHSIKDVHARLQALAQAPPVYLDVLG

Compound: C[C@@H](Cc1c(F)c(F)cc(F)c1F)Nc1cc[nH]c(=O)c1-c1nc2cc3c(cc2[nH]1)CN(C1CCN(C)CC1)C3=O [Compound 4, (S)-6-(1-Methylpiperidin-4-yl)-2-(2-oxo-4-(1-(2,3,5,6-tetrafluorophenyl)propan-2-ylamino)-1,2-dihydropyridin-3-yl)-6,7-dihydroimidazo[4,5-f]isoindol-5(3H)-one]
IC50 [1]: 2.72 µM
IC50 (NB-1 neuroblastoma cells): 257 nM
half-life at 0.5 μM [2]: > 120 min
microsomal CLint at 0.5 μM [2]: < 5.8 µL/min/mg
half-life at 0.5 μM [3]: > 120 min
microsomal CLint at 0.5 μM [3]: < 5.8 µL/min/mg
reduced potency, C1156Y compared to EML4-ALK parent construct (EML4-ALK C1156Y): 2.0 fold
IC50 (EML4-ALK R1275Q): 2885 ± 20 nM
Papp A→B at 2 h, 10 μM [4]: < 0.2 ×10⁻⁶ cm/s
Papp B→A at 2 h, 10 μM [4]: 20 ×10⁻⁶ cm/s

Compound: 2-(4-(1-(5-Fluoro-2-methylphenyl)propan-2-ylamino)-2-oxo-1,2-dihydropyridin-3-yl)-6-(2-(dimethylamino)ethyl)-6,7-dihydroimidazo[4,5-f]isoindole-5(1H)-one [Compound 45]
IC50 (NPM-ALK R1275Q): 81 ± 4.2 nM
reduced potency, C1156Y compared to NPM-ALK parent construct (NPM-ALK C1156Y): 1.6 fold
reduced potency, C1156Y compared to EML4-ALK parent construct (EML4-ALK C1156Y): 1.3 fold
GI50 (FLT3-ITD): > 1000 nM

Compound: C[C@@H](Cc1cc(F)ccc1F)Nc1cc[nH]c(=O)c1-c1nc2cc3c(cc2[nH]1)C(=O)N(C)C3=O (stereo in doubt) [Compound 32, 2-(4-(1-(2,5-Difluorophenyl)propan-2-ylamino)-2-oxo-1,2-dihydropyridin-3-yl)-6-methylimidazo[4,5-f]isoindole-5,7(1H,6H)-dione]
Papp A→B at 2 h, 10 μM [4]: > 0.2 ×10⁻⁶ cm/s
microsomal CLint at 0.5 μM (in vitro): < 5 µL/min/mg

Compound: C[C@@H](Cc1c(F)c(F)cc(F)c1F)Nc1cc[nH]c(=O)c1-c1nc2cc3c(cc2[nH]1)C(=O)N(c1cccnc1)C3O (stereo partly drawn) [Compound 13, 7-Hydroxy-2-(2-oxo-4-(((S)-1-(2,3,5,6-tetrafluorophenyl)propan-2-yl)amino)-1,2-dihydropyridin-3-yl)-6-(pyridin-3-yl)-6,7-dihydroimidazo[4,5-f]isoindol-5(1H)-one]
IC50 (ALK): 15.2 nM
IC50 (TrkA): 6.36 nM

Compound: (S)-6-(2-(Dimethylamino)ethyl)-2-(2-oxo-4-((1-(2,3,5,6-tetrafluorophenyl)propan-2-yl)amino)-1,2-dihydropyridin-3-yl)-6,7-dihydroimidazo[4,5-f]isoindol-5(3H)-one [Compound 1]
IC50 ([1]; read-out: hERG inhib. IC50, HEK293, hERG tail current): 6.25 µM
AUC0-1440 ([5]; 10 mg/kg I.V.): 329 µg·min/mL
CL ([5]; 10 mg/kg I.V.): 25.5 mL/min/kg
MRT ([5]; 10 mg/kg I.V.): 1362 min
T1/2 ([5]; 10 mg/kg I.V.): 1323 min
Vss ([5]; 10 mg/kg I.V.): 23.9 L/kg
AUC0-1440 ([5]; 10 mg/kg P.O.): 0.943 µg·min/mL
Cmax ([5]; 10 mg/kg P.O.): 2.21 ng/mL
F ([5]; 10 mg/kg P.O.): 0.287%
Tmax ([5]; 10 mg/kg P.O.): 113 min
IC50 (U937 lymphoma cells): 1600 nM
GI50 (FLT3-ITD): > 3000 nM
Compound 1 (parameter cell as printed) (Dog pharmacokinetics): 17.2 µg·min/mL
F (Dog pharmacokinetics): 12%
F (Mouse pharmacokinetics): 30%
F [7]: 1%

Compound: C[C@@H](Cc1c(F)c(F)cc(F)c1F)Nc1cc[nH]c(=O)c1-c1nc2cc3c(cc2[nH]1)C(=O)N(c1ccc(F)nc1)C3=O [Compound 15, (S)-6-(6-Fluoropyridin-3-yl)-2-(2-oxo-4-((1-(2,3,5,6-tetrafluorophenyl)propan-2-yl)amino)-1,2-dihydropyridin-3-yl)imidazo[4,5-f]isoindole-5,7(1H,6H)-dione]
IC50 (K299 lymphoma cells): > 10 µM
Papp A→B at 2 h, 10 μM [4]: < 0.2 ×10⁻⁶ cm/s
Papp B→A at 2 h, 10 μM [4]: < 0.2 ×10⁻⁶ cm/s
IC50 (cMET): > 10 µM

Second part, the compound after the results:

F ([5]; 10 mg/kg P.O.): 0.402%
AUC(0-t) ([5]; iv, 10 mg/kg I.V.): 8850 ng·h/mL
AUC(0-t) ([5]; po, 10 mg/kg P.O.): 35.5 ng·h/mL
half-life at 0.5 μM (in vitro): 8.88 min
Compound: CC(Cc1cc(F)ccc1F)Nc1cc[nH]c(=O)c1-c1nc2cc3c(cc2[nH]1)CNC3=O (centres unmarked) [Compound 53]

Pos Ctrl (Papp): Propranolol Papp (Caco-2 monolayers; [8]): 13.7 and 14.3 and 11.8
Pos Ctrl: Propranolol Recovery (Caco-2 monolayers; [8]): 63% and 26%
recovery at 2 h, 10 μM ([4]; Caco-2, Pos Ctrl: Propranolol Recovery, positive control run with the compound of that line, 10 μM): 44%
Papp at 2 h, 10 μM ([4]; Caco-2, positive control run with the compound of that line, 10 μM): 14 ×10⁻⁶ cm/s
Compound: CC(C)NCC(O)COc1cccc2ccccc12 (centres unmarked) [Propranolol, reference compound]

Mouse LM-P1 Half-life ([6]; Phase I only, 0.5 μM): 54.06 min
half-life at 0.5 μM ([6]; mouse, liver microsomes, pH 7.4, Phase I only, read-out: Mouse LM-P1 Half-life): 12.8 min
Papp A to B (Caco-2 monolayers; Caco-2, 10 μM): 1.7 10−6 cm/sec
Papp B to A (Caco-2 monolayers; Caco-2, 10 μM, basolateral pH 7.4, 2 h): 1.4 10−6 cm/sec
Efflux Ratio (Caco-2 monolayers; Caco-2, B to A / A to B): 0.5
Compound: CC(Cc1cc(F)ccc1F)Nc1cc[nH]c(=O)c1-c1nc2cc3c(cc2[nH]1)CN(C)C3=O (centres unmarked) [Compound 33, 2-(4-(1-(2,5-Difluorophenyl)propan-2-ylamino)-2-oxo-1,2-dihydropyridin-3-yl)-6-methyl-6,7-dihydroimidazo[4,5-f]isoindol-5(1H)-one]

Papp A to B (Caco-2 monolayers; Caco-2, 10 μM): >0.2 10−6 cm/sec
Papp A→B at 2 h, 10 μM [4]: < 0.2 ×10⁻⁶ cm/s
Compound: CC(Cc1cc(F)ccc1F)Nc1cc[nH]c(=O)c1-c1nc2cc3c(cc2[nH]1)C(=O)N(CC(O)CO)C3=O [Compound 34, 2-(4-(1-(2,5-Difluorophenyl)propan-2-ylamino)-2-oxo-1,2-dihydropyridin-3-yl)-6-(R)-2,3-dihydroxypropyl)imidazo[4,5-f]isoindole-5,7(1H,6H)-dione]
